Data on one compound can be found in patent US4808517A (priority 1985, dated 1989).

In this test the test system is submitochondrial particles. The test is classed as biochemical.

For `Oc1c(Cl)c(Cl)c(Cl)c(Cl)c1Cl` [Pentachlorophenol], the “Inhibition of maximum NADH concentration” value came to 39%.
